Data taken from patent US9695155B2, “Herbicidal substituted pyrimidinyloxy benzene compounds” (E. I. DU PONT DE NEMOURS AND COMPANY, priority 2013, dated 2017).

Experiments:
[1] = test system: blackgrass; experiment: Test C preemergence; assay type: in vivo, Alopecurus myosuroides
How it was run: (§1)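 Whole-plant greenhouse test with surfactant-containing solvent formulation, applied preemergence to sown loam–sand pots or postemergence to 2–18 cm plants. Scored by eye 13 to 15 days on, 0–100 scale.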

[2] = test system: sedge, umbrella; experiment: Test B flooded paddy test; assay type: in vivo, Cyperus difformis; settings: Flood, 250 g ai/ha, 0 to 100 scale where 0 is no effect and 100 is complete control
How it was run: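 Flooded to 3 cm at the 2-leaf stage, pots received compound through the paddy water and were kept at that depth under greenhouse conditions. After 13–15 days, effect was rated by eye relative to controls, 0 = none and 100 = complete control.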

[3] = test system: barnyardgrass; experiment: Test C postemergence; assay type: in vivo, Echinochloa crus-galli
How it was run: as §1

[4] = test system: galium; experiment: Test C postemergence; assay type: in vivo, Galium aparine
How it was run: as §1

[5] = test system: corn; experiment: Test C preemergence; assay type: in vivo, Zea mays
How it was run: as §1

[6] = test system: lambsquarters; experiment: Test C postemergence; assay type: in vivo, Chenopodium album
How it was run: as §1

[7] = test system: wheat; experiment: Test A postemergence; assay type: in vivo, Triticum aestivum; settings: 0 to 100 scale where 0 is no effect and 100 is complete control
How it was run: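 Injury scores run from 0, no effect, to 100, complete control, judged by eye against untreated plants roughly 10 days after treatment. Chemicals carried a surfactant in a non-phytotoxic solvent and went onto loam–sand soil preemergence or onto one- to two-leaf seedlings postemergence.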

[8] = test system: oilseed rape; experiment: Test C postemergence; assay type: in vivo, Brassica napus
How it was run: as §1

[9] = test system: pigweed; experiment: Test C preemergence; assay type: in vivo, Amaranthus retroflexus
How it was run: as §1

[10] = test system: velvetleaf; experiment: Test C postemergence; assay type: in vivo, Abutilon theophrasti
How it was run: as §1

[11] = test system: wheat, winter; experiment: Test C postemergence; assay type: in vivo, Triticum aestivum
How it was run: as §1

[12] = test system: Italian ryegrass; experiment: Test C postemergence; assay type: in vivo, Lolium multiflorum
How it was run: as §1

[13] = test system: velvetleaf; experiment: Test C preemergence; assay type: in vivo, Abutilon theophrasti
How it was run: as §1

[14] = 16 g ai/ha, preemergence, scale 0 to 100 (0 no effect, 100 complete control)
[15] = 62 g ai/ha, preemergence, scale 0 (no effect) to 100 (complete control)
[16] = 125 g ai/ha, preemergence, scale 0 (no effect) to 100 (complete control)
[17] = Preemergence, 31 g ai/ha, scale 0 to 100, 0 no effect, 100 complete control
[18] = 16 g ai/ha, postemergence, visual rating, scale 0 to 100 (0 no effect, 100 complete control), 13 to 15 days
[19] = Postemergence, 31 g ai/ha, scale 0 to 100 (0 no effect, 100 complete control), 13 to 15 days
[20] = Postemergence, 62 g ai/ha, scale 0 to 100 (0 no effect, 100 complete control)

FC(F)(F)Sc1cnn(-c2ccccc2Oc2ncc(Cl)cn2)c1 [Compound 132, 5-chloro-2-[2-[4-(trifluoromethylthio)-1H-pyrazol-1-yl]phenoxy]pyrimidine]
pest or weed control at 16 g/ha ([1]; Alopecurus myosuroides, pre-emergence, 16 g ai/ha, preemergence, scale 0 to 100 (0 no effect, 100 complete control), read-out: Blackgrass plant response rating): 0%
pest or weed control at 62 g/ha ([1]; Alopecurus myosuroides, pre-emergence, 62 g ai/ha, preemergence, scale 0 (no effect) to 100 (complete control), read-out: Blackgrass plant response rating): 40%
pest or weed control at 125 g/ha ([1]; Alopecurus myosuroides, pre-emergence, 125 g ai/ha, preemergence, scale 0 (no effect) to 100 (complete control), read-out: Blackgrass plant response rating): 95%
pest or weed control at 31 g/ha ([1]; Alopecurus myosuroides, pre-emergence, Preemergence, 31 g ai/ha, scale 0 to 100, 0 no effect, 100 complete control, read-out: Plant response rating, Blackgrass): 5%
pest or weed control at 250 g/ha ([2]; Cyperus difformis, read-out: Plant response rating, Sedge, Umbrella): 0%
pest or weed control at 16 g/ha ([3]; Echinochloa crus-galli, post-emergence, 16 g ai/ha, postemergence, 0 is no effect, 100 is complete control, read-out: Plant response rating (0 to 100), Barnyardgrass): 0%
pest or weed control at 125 g/ha ([3]; Echinochloa crus-galli, post-emergence, 125 g ai/ha, postemergence, visual rating, scale 0 to 100 (0 no effect, 100 complete control), read-out: Plant response rating, Barnyardgrass): 5%
pest or weed control at 31 g/ha ([3]; Echinochloa crus-galli, post-emergence, Postemergence, 31 g ai/ha, scale 0 to 100 (0 no effect, 100 complete control), 13 to 15 days, read-out: Plant response rating, Barnyardgrass): 0%
pest or weed control at 62 g/ha ([3]; Echinochloa crus-galli, post-emergence, Postemergence, 62 g ai/ha, scale 0 to 100 (0 no effect, 100 complete control), read-out: Plant response rating, Barnyardgrass): 5%
pest or weed control at 16 g/ha ([4]; Galium, post-emergence, 16 g ai/ha, postemergence, 0 is no effect, 100 is complete control, read-out: Plant response rating (0 to 100), Galium): 50%
pest or weed control at 125 g/ha ([4]; Galium, post-emergence, 125 g ai/ha, postemergence, visual rating, scale 0 to 100 (0 no effect, 100 complete control), read-out: Plant response rating, Galium): 70%
pest or weed control at 62 g/ha ([4]; Galium, post-emergence, Postemergence, 62 g ai/ha, scale 0 to 100 (0 no effect, 100 complete control), read-out: Plant response rating, Galium): 65%
plant injury at 16 g/ha ([5]; Zea mays, pre-emergence, 16 g ai/ha, preemergence, scale 0 to 100 (0 no effect, 100 complete control), read-out: Corn plant response rating): 0%
plant injury at 62 g/ha ([5]; Zea mays, pre-emergence, 62 g ai/ha, preemergence, scale 0 (no effect) to 100 (complete control), read-out: Corn plant response rating): 20%
plant injury at 125 g/ha ([5]; Zea mays, pre-emergence, 125 g ai/ha, preemergence, scale 0 (no effect) to 100 (complete control), read-out: Corn plant response rating): 35%
Corn plant response rating (crop injury, 0 = no effect, 100 = complete kill) at 31 g/ha ([5]; Zea mays, pre-emergence, Preemergence, 31 g ai/ha, scale 0 to 100, 0 no effect, 100 complete control): 10%
pest or weed control at 16 g/ha ([6]; Chenopodium album, post-emergence, 16 g ai/ha, postemergence, 0 is no effect, 100 is complete control, read-out: Plant response rating (0 to 100), Lambsquarters): 10%
pest or weed control at 125 g/ha ([6]; Chenopodium album, post-emergence, 125 g ai/ha, postemergence, visual rating, scale 0 to 100 (0 no effect, 100 complete control), read-out: Plant response rating, Lambsquarters): 50%
pest or weed control at 62 g/ha ([6]; Chenopodium album, post-emergence, Postemergence, 62 g ai/ha, scale 0 to 100 (0 no effect, 100 complete control), read-out: Plant response rating, Lambsquarters): 60%
plant injury at 125 g/ha ([7]; Triticum aestivum, post-emergence, 240 h, 125 g ai/ha, read-out: Wheat plant response rating): 0%
plant injury at 500 g/ha ([7]; Triticum aestivum, post-emergence, 240 h, 500 g ai/ha, read-out: Plant response rating, Wheat): 60%
plant injury at 16 g/ha ([8]; Brassica napus, post-emergence, 16 g ai/ha, postemergence, 0 is no effect, 100 is complete control, read-out: Plant response rating (0 to 100), Oilseed Rape): 40%
plant injury at 125 g/ha ([8]; Brassica napus, post-emergence, 125 g ai/ha, postemergence, visual rating, scale 0 to 100 (0 no effect, 100 complete control), read-out: Plant response rating, Oilseed Rape): 95%
plant injury at 62 g/ha ([8]; Brassica napus, post-emergence, Postemergence, 62 g ai/ha, scale 0 to 100 (0 no effect, 100 complete control), read-out: Plant response rating, Oilseed Rape): 70%
pest or weed control at 16 g/ha ([9]; Amaranthus retroflexus, pre-emergence, 16 g ai/ha, preemergence, scale 0 to 100 (0 no effect, 100 complete control), read-out: Pigweed plant response rating): 30%
pest or weed control at 62 g/ha ([9]; Amaranthus retroflexus, pre-emergence, 62 g ai/ha, preemergence, scale 0 (no effect) to 100 (complete control), read-out: Pigweed plant response rating): 70%
pest or weed control at 125 g/ha ([9]; Amaranthus retroflexus, pre-emergence, 125 g ai/ha, preemergence, scale 0 (no effect) to 100 (complete control), read-out: Pigweed plant response rating): 100%
pest or weed control at 31 g/ha ([9]; Amaranthus retroflexus, pre-emergence, Preemergence, 31 g ai/ha, scale 0 to 100, 0 no effect, 100 complete control, read-out: Plant response rating, Pigweed): 45%
pest or weed control at 16 g/ha ([10]; Abutilon theophrasti, post-emergence, 16 g ai/ha, postemergence, 0 is no effect, 100 is complete control, read-out: Plant response rating (0 to 100), Velvetleaf): 5%
pest or weed control at 125 g/ha ([10]; Abutilon theophrasti, post-emergence, 125 g ai/ha, postemergence, visual rating, scale 0 to 100 (0 no effect, 100 complete control), read-out: Plant response rating, Velvetleaf): 45%
pest or weed control at 62 g/ha ([10]; Abutilon theophrasti, post-emergence, Postemergence, 62 g ai/ha, scale 0 to 100 (0 no effect, 100 complete control), read-out: Plant response rating, Velvetleaf): 40%
plant injury at 16 g/ha ([11]; Triticum aestivum, post-emergence, 16 g ai/ha, postemergence, 0 is no effect, 100 is complete control, read-out: Plant response rating (0 to 100), Wheat): 0%
plant injury at 125 g/ha ([11]; Triticum aestivum, post-emergence, 125 g ai/ha, postemergence, visual rating, scale 0 to 100 (0 no effect, 100 complete control), read-out: Plant response rating, Wheat): 5%
plant injury at 62 g/ha ([11]; Triticum aestivum, post-emergence, Postemergence, 62 g ai/ha, scale 0 to 100 (0 no effect, 100 complete control), read-out: Plant response rating, Wheat): 0%
pest or weed control at 16 g/ha ([12]; Lolium multiflorum, post-emergence, 16 g ai/ha, postemergence, 0 is no effect, 100 is complete control, read-out: Plant response rating (0 to 100), Ryegrass, Italian): 0%
pest or weed control at 125 g/ha ([12]; Lolium multiflorum, post-emergence, 125 g ai/ha, postemergence, visual rating, scale 0 to 100 (0 no effect, 100 complete control), read-out: Plant response rating, Ryegrass, Italian): 5%
pest or weed control at 62 g/ha ([12]; Lolium multiflorum, post-emergence, Postemergence, 62 g ai/ha, scale 0 to 100 (0 no effect, 100 complete control), read-out: Plant response rating, Ryegrass, Italian): 5%
pest or weed control at 16 g/ha ([13]; Abutilon theophrasti, pre-emergence, 16 g ai/ha, preemergence, scale 0 to 100 (0 no effect, 100 complete control), read-out: Velvetleaf plant response rating): 75%
pest or weed control at 62 g/ha ([13]; Abutilon theophrasti, pre-emergence, 62 g ai/ha, preemergence, scale 0 (no effect) to 100 (complete control), read-out: Velvetleaf plant response rating): 100%
pest or weed control at 125 g/ha ([13]; Abutilon theophrasti, pre-emergence, 125 g ai/ha, preemergence, scale 0 (no effect) to 100 (complete control), read-out: Velvetleaf plant response rating): 100%
pest or weed control at 31 g/ha ([13]; Abutilon theophrasti, pre-emergence, Preemergence, 31 g ai/ha, scale 0 to 100, 0 no effect, 100 complete control, read-out: Plant response rating, Velvetleaf): 85%

CCOc1cn(-c2c(Br)cccc2Oc2ncc(Cl)cn2)nn1 [Compound 84]
Blackgrass plant response rating [1, 14]: 0
Blackgrass plant response rating [1, 15]: 40
Blackgrass plant response rating [1, 16]: 85
Plant response rating, Blackgrass [1, 17]: 5
Plant response rating, Sedge, Umbrella [2]: 30
Barnyardgrass plant response rating [3, 18]: 0
Plant response rating (0 to 100), Barnyardgrass ([3]; 125 g ai/ha, postemergence): 15
Plant response rating, Barnyardgrass [3, 19]: 0
Plant response rating, Barnyardgrass [3, 20]: 0
Galium plant response rating [4, 18]: 60
Plant response rating (0 to 100), Galium ([4]; 125 g ai/ha, postemergence): 95
Plant response rating, Galium [4, 19]: 75
Plant response rating, Galium [4, 20]: 60
Corn plant response rating [5, 14]: 0
Corn plant response rating [5, 15]: 0
Corn plant response rating [5, 16]: 5
Plant response rating, Corn [5, 17]: 0
Plant response rating (0 to 100), Lambsquarters ([6]; 125 g ai/ha, postemergence): 80
Plant response rating, Lambsquarters [6, 19]: 30
Plant response rating, Lambsquarters [6, 20]: 55
Plant response rating, Wheat ([7]; 125 g ai/ha): 30
Plant response rating, Wheat ([7]; 500 g ai/ha): 80
Plant response rating (0 to 100), Oilseed Rape ([8]; 125 g ai/ha, postemergence): 60
Plant response rating, Oilseed Rape [8, 19]: 20
Plant response rating, Oilseed Rape [8, 20]: 45
Pigweed plant response rating [9, 14]: 85
Pigweed plant response rating [9, 15]: 100
Pigweed plant response rating [9, 16]: 100
Plant response rating, Pigweed [9, 17]: 100
Plant response rating (0 to 100), Velvetleaf ([10]; 125 g ai/ha, postemergence): 90
Plant response rating, Velvetleaf [10, 19]: 45
Plant response rating, Velvetleaf [10, 20]: 70
Plant response rating (0 to 100), Wheat ([11]; 125 g ai/ha, postemergence): 0
Plant response rating, Wheat [11, 19]: 0
Plant response rating, Wheat [11, 20]: 0
Plant response rating (0 to 100), Ryegrass, Italian ([12]; 125 g ai/ha, postemergence): 0
Plant response rating, Ryegrass, Italian [12, 19]: 0
Plant response rating, Ryegrass, Italian [12, 20]: 0
Velvetleaf plant response rating [13, 14]: 50
Velvetleaf plant response rating [13, 15]: 85
Velvetleaf plant response rating [13, 16]: 100
Plant response rating, Velvetleaf [13, 17]: 60
